Results taken from patent US20250041298A1, “CDK4 INHIBITOR FOR THE TREATMENT OF CANCER” (Pfizer Inc., priority 2021, published 2025).
“And” between values parts separate entries of the source, which are not always exact repeats. Equal values may be shown once.

Columns and labels:
Assay type in all cases: cell-based, human
[1] = tested on: HR+, HER2- T47D breast cancer spheroids; assay: Multicellular tumor spheroid growth inhibition (SGI), T47D
Procedure: (§1) The purpose of this example was to evaluate the combination effect of PF-07220060 and endocrine therapy in multicellular tumor spheroid growth inhibition (SGI). To model the characteristics and cellular behavior of human tumors, the activity of PF-07220060 was evaluated in three dimensional MCTS models of HR+ breast cancer and AR+ prostate cancer following PF-07220060 treatment as a single agent and in combination with fulvestrant • 1) in HR+, HER2-T47D breast cancer spheroids. • 2) in HR+, HER2+BT474 breast cancer spheroids, • 3) in BT474 spheroids, and • 4) in AR+ prostate carcinoma cell line (LNCaP) prostate cancer spheroids. Spheroids were treated with increasing concentrations of 100, 300, or 1000 nM PF-07220060 and compared to palbociclib at the clinically relevant concentration of 30 nM. Single agent PF-07220060 inhibited spheroid growth in a dose-dependent manner, with highest efficacy (86% SGI over the duration of treatment with 1000 nM) shown in the T47D BC spheroid model (Table 1). Combining 100 nM PF-07220060 with 1 nM fulvestrant in T47D cells increased SGI to 96% compared to either single agent alone (57 to 67% SGI with 100 nM PF-07220060 or 79% SGI with fulvestrant) (Table 1). BT474 spheroids were relatively less sensitive to PF-07220060 resulting in 52% SGI at 1000 nM.

[2] = tested on: HR+, HER2+ BT474 breast cancer spheroids; assay: Multicellular tumor spheroid growth inhibition (SGI), BT474
Procedure: as §1

[3] = tested on: AR+ prostate carcinoma cell line (LNCaP) prostate cancer spheroids; assay: Multicellular tumor spheroid growth inhibition (SGI), LNCaP
Procedure: The purpose of this example was to evaluate the combination effect of PF-07220060 and endocrine therapy in multicellular tumor spheroid growth inhibition (SGI). To model the characteristics and cellular behavior of human tumors, the activity of PF-07220060 was evaluated in three dimensional MCTS models of HR+ breast cancer and AR+ prostate cancer following PF-07220060 treatment as a single agent and in combination with fulvestrant • 1) in HR+, HER2-T47D breast cancer spheroids. • 2) in HR+, HER2+BT474 breast cancer spheroids, • 3) in BT474 spheroids, and • 4) in AR+ prostate carcinoma cell line (LNCaP) prostate cancer spheroids. Spheroids were treated with increasing concentrations of 100, 300, or 1000 nM PF-07220060 and compared to palbociclib at the clinically relevant concentration of 30 nM.

| SMILES | SGI ([1]; 1 nM single agent) [%] | SGI ([2]; 100 nM single agent) [%] | SGI ([3]; 30 nM single agent) [%] | SGI ([3]; 100 nM single agent) [%] | SGI ([1]; 30 nM single agent) | SGI ([2]; 30 nM single agent) |
| --- | --- | --- | --- | --- | --- | --- |
| C[C@]12CC[C@@H]3c4ccc(O)cc4C[C@@H](CCCCCCCCC[S+]([O-])CCCC(F)(F)C(F)(F)F)[C@H]3[C@@H]1CC[C@@H]2O (stereo partly drawn) [Fulvestrant, reference compound] | 79 | 10 | – | – | – | – |
| CC(=O)c1c(C)c2cnc(Nc3ccc(N4CCNCC4)cn3)nc2n(C2CCCC2)c1=O [Palbociclib, reference compound] | – | – | 5 | 24 | 38% and 49% | 0% and 5% and 1% |
